Test results published in US8003331B2, “Method for identifying target protein of drug and method for screening therapeutic agent for diabetes using the target protein” (Astellas Pharma Inc., priority 2005, dated 2011).

Key:
TARDBP = target: T1, TARDBP (Homo sapiens, UniProt Q13148); test: pull-down with 8 GST fusion chaperone proteins from THP-1 cell extract, negative staining and mass spectrum identification; assay type: binding; conditions: 100 μM thalidomide added or not added
T1 construct: endogenous in cells; host or cells: THP-1
Experimental: Thalidomide has significant drug effects for sleep inducing agents, multiple myeloma, HIV, Hansen's disease and the like, but direct target protein of thalidomide has so far been unclear. Accordingly, an attempt was made to screen a target protein of thalidomide using the method shown in the aforementioned “Example 2(2). A human monocytic cell line THP-1 (ATCC) was cultured and suspended in 60 ml of a minimum essential medium (RPMI 1640, Invitrogen) containing 10% fetal calf serum (FCS) and cultured on a plate of 10 cm in diameter (Asahi Techno Glass) until reached 10^6 cells/ml. The cells were collected by 3 minutes of centrifugation at 1200 rpm, washed once with 10 ml of ice-cooled PBS and then lysed by adding 2.0 ml of the aforementioned buffer A, and the cell extract was collected. […] Under a condition of adding or not adding 100 μM in final concentration of thalidomide ((−)-thalidomide, Sigma), a pull-down test was carried out by mixing this soluble fraction of cell extract with 8 species of GST fusion chaperone proteins purified on the glutathione Sepharose beads (a mixture of GST-HSPA1A, GST-HSPH1, GST-HSPCA, GST-HSPD1, GST-DNAJA1, GST-HSPB1, GST-HSPE1 and GST-HSPA4; respective proteins were mixed in 0.5 μg portions). In this connection, steps and conditions of the pull-down test were the same as the aforementioned Example 2(2). […]

TNF-α = TNF-α gene expression in HeLa S3 cell (real time PCR, corrected by β-actin); assay type: cell-based, human
Experimental: The pcDNA-TARDBP or an empty vector (pcDNA3.1) (Invitrogen) was transferred into HeLa S3 cell. Illustratively, the HeLa S3 cell (ATCC) was firstly cultured in a 12 well culture plate until it reached a state of 70% confluent, by adding 1 ml of a minimum essential medium DMEM (Gibco) containing 10% fetal bovine serum (Sigma) to each well of the culture plate. The medium was substituted by 0.5 ml per well of a serum-free medium OPTI MEM I (Invitrogen), and 0.8 μg/well of the pcDNA-TARDBP or pcDNA3.1 was transiently transferred using Lipofect amine 2000 (Invitrogen). After 12 hours of the culturing, this was substituted by 1 ml/well of DMEM containing 10% of fetal bovine serum and further cultured for 12 hours. This was further cultured for 16 hours under a condition of adding or not adding okadaic acid (Wako Pure Chemical Industries) to a final concentration of 50 nM. In this case, […] was added a part of the cells simultaneously with the okadaic acid treatment. The medium was discarded, the cells were washed twice with ice-cooled PBS, and then these cells were frozen and stored at −80° C.
Total RNA was prepared from each cell frozen in the aforementioned Example 9(2), using a reagent for RNA extraction use (Isogen; Nippon Gene) and in accordance with the instructions attached thereto. The thus prepared each total RNA was then treated with a deoxyribonuclease (Nippon Gene), subjected to phenol/chloroform treatment and ethanol precipitation and dissolved in sterile water. Using 1 μg of this total RNA, its reverse transcription into a single-stranded cDNA was carried out in a system of 20 μl using a kit for reverse transcription reaction use (Advantage™ RT-for-PCR Kit; Clontech).
Six oligonucleotides (SEQ ID NO:97 to SEQ ID NO:102) were designed and synthesized as primers of PCR for the measurement of gene expression quantity. A combination of SEQ ID NO:97 and SEQ ID NO:98 was used for human β-actin gene, and a combination of SEQ ID NO:99 and SEQ ID NO:100 for human TNF-α gene, and a combination of SEQ ID NO:101 and SEQ ID NO:102 for human TARDBP gene, respectively. […]
The expression quantities of human TNF-α gene and human TARDBP gene in each sample were corrected by the expression quantity of β-actin gene based on the following equation. [Corrected expression quantity of TNF-α or TARDBP]=[expression quantity of TNF-α or TARDBP gene (raw data)/[expression quantity of β-actin gene (raw data)]
In comparing the expression quantities of TNF-α and TARDBP genes, relative amounts were calculated by regarding the expression quantity in a cell, into which an empty vector (pcDNA3.1) was transferred and which was treated only with the solvent (DMSO), as 100, with the results sown in FIG. 9 and FIG. 10. […]

T1 sequence (Q13148 whole entry, the tested form may be a part): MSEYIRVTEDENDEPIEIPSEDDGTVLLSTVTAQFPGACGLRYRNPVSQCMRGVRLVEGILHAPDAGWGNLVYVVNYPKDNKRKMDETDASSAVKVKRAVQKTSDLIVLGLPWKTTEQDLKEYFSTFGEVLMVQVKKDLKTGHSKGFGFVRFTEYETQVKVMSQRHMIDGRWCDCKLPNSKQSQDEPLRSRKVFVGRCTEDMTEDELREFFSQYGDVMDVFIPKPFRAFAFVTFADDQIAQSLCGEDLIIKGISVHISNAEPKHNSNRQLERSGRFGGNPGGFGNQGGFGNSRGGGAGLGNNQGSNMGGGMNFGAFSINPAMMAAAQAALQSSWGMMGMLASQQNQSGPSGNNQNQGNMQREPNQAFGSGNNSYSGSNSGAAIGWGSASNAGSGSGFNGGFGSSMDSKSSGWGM

O=C1CCC(N2C(=O)c3ccccc3C2=O)C(=O)N1 (single isomer, unassigned; (-)) [thalidomide, (−)-thalidomide]
band of about 45 kDa (TARDBP) binding to GST fusion chaperone protein mixture (TARDBP): present only when thalidomide was added | action to suppress expression of TNF-α (TNF-α; TARDBP high expression cell (pcDNA-TARDBP HeLa S3), with 50 nM okadaic acid): not observed | suppression of expression acceleration of TNF-α by okadaic acid (TNF-α; control cell (empty vector HeLa S3), thalidomide '100' added with 50 nM okadaic acid, 16 hours): ~50%
